Tested on: Colorado potato beetles (Leptinotarsa decemlineata Say)
Test: Field test of foliar sprays on potato plots: efficacy on Colorado potato beetles, number of larvae alive
Type: in vivo
Conditions: for Number Larvae Alive 3 DAT: 3 days after treatment; for Number Larvae Alive 3 DAT / Number Larvae Alive 7 DAT / Number Larvae Alive 14 DAT / Number Larvae Alive 21 DAT / Number Larvae Alive 28 DAT: foliar spray; for Number Larvae Alive 7 DAT: 7 days after treatment; for Number Larvae Alive 14 DAT: 14 days after treatment; for Number Larvae Alive 21 DAT: 21 days after treatment; for Number Larvae Alive 28 DAT: 28 days after treatment; for Number Larvae Alive 0 Days: before treatment (0 days, baseline)
Experimental: The compositions of the present invention were tested for Colorado Potato Beetle activity in the following manner:
Test compositions made up of Fury 10 EW, Mospilan 20 SP and Regent 200 SC were prepared that provided appropriate rates of application of combinations of zeta-cypermethrin, acetamiprid and fipronil, as well as zeta-cypermethrin, acetamiprid and fipronil alone.
The test was set up as a randomized complete block with 3 replicates. Each test plot was 24 meters square containing 3 rows of 50 plants. All test materials were applied as a foliar spray in 300 liters per hectare of water using a PILMET 212 sprayer at 0.35 Mpa. Observations were made before treatment (0 days), 3 days after treatment (DAT), 7 DAT, 14 DAT, 21 DAT and 28 DAT. For each observation 50 plants were inspected. For each observation the number of larvae reported was the total on the 10 most infested plants. Results reported are an average of three replicates.

## C/C(=N\C#N)N(C)Cc1ccc(Cl)nc1 [B, (E)-N^1-[(6-chloro-3-pyridyl)methyl]-N^2-cyano-N^1-methylacetamidine]
B 100 g per hectare
  Number Larvae Alive 3 DAT: 8
  Number Larvae Alive 7 DAT: 22
  Number Larvae Alive 14 DAT: 18
  Number Larvae Alive 21 DAT: 38
  Number Larvae Alive 28 DAT: 47
  Number Larvae Alive 0 Days: 362

## CC1(C)C(C=C(Cl)Cl)C1C(=O)OC(C#N)c1cccc(Oc2ccccc2)c1 [A, (R,S)-α-cyano-3-phenoxybenzyl-(1R,S)-cis-trans-3-(2,2-dichlorovinyl)-2,2-dimethylcyclopropanecarboxylate]
A 200 ml per hectare
  Number Larvae Alive 3 DAT: 10
  Number Larvae Alive 7 DAT: 18
  Number Larvae Alive 14 DAT: 15
  Number Larvae Alive 21 DAT: 43
  Number Larvae Alive 28 DAT: 20
A 200 ml per hectare, total on 10 most infested plants, average of 3 replicates
  Number Larvae Alive 0 Days: 303

## N#Cc1nn(-c2c(Cl)cc(C(F)(F)F)cc2Cl)c(N)c1[S+]([O-])C(F)(F)F (stereo not drawn) [C, 5-amino-1-(2,6-dichloro-α,α,α-trifluoro-p-tolyl)-4-trifluoromethylsulfinylpyrazole-3-carbonitrile]
C 100 ml per hectare
  Number Larvae Alive 3 DAT: 2
  Number Larvae Alive 7 DAT: 0
  Number Larvae Alive 14 DAT: 0
  Number Larvae Alive 21 DAT: 22
  Number Larvae Alive 28 DAT: 17
  Number Larvae Alive 0 Days: 359

Source: patent publication US20100227897A1, “Composition for Controlling Colorado Potato Beetles” (FMC CORPORATION, priority 2006, published 2010)
